The results in this text go back to patent publication US20090203785A1, “METHOD AND PROCESS FOR PRODUCING YOUTHFUL-APPEARING, SMALL-PORED, AND SMOOTH SKIN” (priority 2002, published 2009).

SMILES strings stand for the structures.

In this data set the test system is acne vulgaris. The data set is described as follows: topical retinoic acid plus laser-induced explosion of carbon particles on the skin of a patient with acne vulgaris (FIG. 4). The data set is classed as in vivo. Particulars: combination with exploding carbon particles (Q-switched laser); after first six months of treatment; one patient.

Source text: In the first step 40, pre-treatment is initiated with topical retinoic acid applied to the skin at least twice per week. The concentration of retinoic acid in the topical formulation is between about 0.05% to 1% preferably about 0.1%. […] In the next step 41, a solution of carbon particles in baby oil is applied to the skin. The carbon particle-oil ratio may range from about 1:1 to 1:9, preferably 1:4, i.e., about 25 percent carbon particles suspended in about 75 percent oil by weight. In the next steps 42 and 43 a laser beam is scanned over the skin treated with the carbon particle solution so as to clean substantially all of the carbon particles from the skin surface by exploding or fracturing the carbon particles. This scanning process takes from about 2 to 10 minutes to complete on the face, usually about 4 minutes, exposing the carbon particles only to 1 or 2 pulses of laser light.
The wave length of the radiation may range from about 800 nM to 1200 nM, preferably about 1064 nM. The frequency of the pulses from the laser range from about 1 to 20 per second, preferably, about 10 per second. The duration of each pulse ranges from about 0.001 to 1 microseconds, preferably about 0.1 microseconds. The fluence or exposure of the skin treated with the carbon particles ranges from about 1 to 3 J/cm^2. […]

In the case of `CC1=C(/C=C/C(C)=C/C=C/C(C)=C/C(=O)O)C(C)(C)CCC1` [retinoic acid], the “state of the epidermis / stratum corneum after treatment” value was “leaving the epidermis intact and normal, with no removal of stratum corneum”.
